Tests used:
Experiment in all cases: relative viability (nuclei count vs DMSO), 5 days (fraction); higher = more cells survive
NCI-H1915 = test system: NCI-H1915
Procedure, shortened: (§1)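 Lung cancer cell lines, seeded in 1536-well plates, were treated the following day by pin tool with a single drug or with five library-drug doses (not always all listed) in √10 steps on top of a fixed anchor-drug dose. Cells were fixed and nuclei stained in one step after 5 days, and nuclei were counted. Relative viability is the nuclei count for treated wells divided by that for vehicle wells, reported as medians of duplicate plates.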

LCLC-97TM1 = test system: LCLC-97TM1
Procedure, shortened: as §1

CAL-12T = test system: CAL-12T
Procedure, shortened: as §1

NCI-H441 = test system: NCI-H441
Procedure, shortened: as §1

SW 1573 = test system: SW 1573
Procedure, shortened: as §1

NCI-H1793 = test system: NCI-H1793
Procedure, shortened: as §1

201T = test system: 201T
Procedure, shortened: as §1

NCI-H838 = test system: NCI-H838
Procedure, shortened: as §1

NCI-H1355 = test system: NCI-H1355
Procedure, shortened: as §1

LOU-NH91 = test system: LOU-NH91
Procedure, shortened: as §1

SK-LU-1 = test system: SK-LU-1
Procedure, shortened: as §1

HCC-78 = test system: HCC-78
Procedure, shortened: as §1

NCI-H3122 = test system: NCI-H3122
Procedure, shortened: as §1

NCI-H650 = test system: NCI-H650
Procedure, shortened: as §1

NCI-H2126 = test system: NCI-H2126
Procedure, shortened: as §1

NCI-H1395 = test system: NCI-H1395
Procedure, shortened: as §1

BEN = test system: BEN
Procedure, shortened: as §1

NCI-H322M = test system: NCI-H322M
Procedure, shortened: as §1

NCI-H1651 = test system: NCI-H1651
Procedure, shortened: as §1

NCI-H2347 = test system: NCI-H2347
Procedure, shortened: as §1

HOP-62 = test system: HOP-62
Procedure, shortened: as §1

NCI-H1944 = test system: NCI-H1944
Procedure, shortened: as §1

CCNC(=O)c1noc(-c2cc(C(C)C)c(O)cc2O)c1-c1ccc(CN2CCOCC2)cc1 [Luminespib] + O=C(CCCCCCC(=O)Nc1ccccc1)NO [Vorinostat] (partner 1 µM)
relative viability (NCI-H1915; first compound 0.002 µM): 0.556
relative viability (NCI-H1915; first compound 0.006325 µM): 0.506
relative viability (NCI-H1915; first compound 0.02 µM): 0.415
relative viability (NCI-H1915; first compound 0.06325 µM): 0.477
relative viability (NCI-H1915; first compound 0.2 µM): 0.0602
relative viability (LCLC-97TM1; first compound 0.002 µM): 0.555
relative viability (LCLC-97TM1; first compound 0.006325 µM): 0.545
relative viability (LCLC-97TM1; first compound 0.06325 µM): 0.0694
relative viability (LCLC-97TM1; first compound 0.2 µM): 0.0638
relative viability (CAL-12T; first compound 0.002 µM): 0.725
relative viability (CAL-12T; first compound 0.006325 µM): 0.802
relative viability (CAL-12T; first compound 0.02 µM): 0.29
relative viability (CAL-12T; first compound 0.06325 µM): 0.101
relative viability (CAL-12T; first compound 0.2 µM): 0.118
relative viability (NCI-H441; first compound 0.002 µM): 0.784
relative viability (NCI-H441; first compound 0.006325 µM): 0.823
relative viability (NCI-H441; first compound 0.02 µM): 0.785
relative viability (NCI-H441; first compound 0.06325 µM): 0.233
relative viability (NCI-H441; first compound 0.2 µM): 0.11
relative viability (SW 1573; first compound 0.002 µM): 0.742
relative viability (SW 1573; first compound 0.006325 µM): 0.874
relative viability (SW 1573; first compound 0.02 µM): 0.212
relative viability (SW 1573; first compound 0.06325 µM): 0.0903
relative viability (SW 1573; first compound 0.2 µM): 0.0874
relative viability (NCI-H1793; first compound 0.002 µM): 0.631
relative viability (NCI-H1793; first compound 0.006325 µM): 0.556
relative viability (NCI-H1793; first compound 0.02 µM): 0.271
relative viability (NCI-H1793; first compound 0.06325 µM): 0.107
relative viability (NCI-H1793; first compound 0.2 µM): 0.122
relative viability (201T; first compound 0.002 µM): 0.959
relative viability (201T; first compound 0.006325 µM): 0.872
relative viability (201T; first compound 0.02 µM): 0.768
relative viability (201T; first compound 0.06325 µM): 0.913
relative viability (201T; first compound 0.2 µM): 0.324
relative viability (NCI-H838; first compound 0.002 µM): 0.778
relative viability (NCI-H838; first compound 0.006325 µM): 0.655
relative viability (NCI-H838; first compound 0.02 µM): 0.785
relative viability (NCI-H838; first compound 0.06325 µM): 0.151
relative viability (NCI-H838; first compound 0.2 µM): 0.153
relative viability (NCI-H1355; first compound 0.002 µM): 0.581
relative viability (NCI-H1355; first compound 0.006325 µM): 0.641
relative viability (NCI-H1355; first compound 0.02 µM): 0.38
relative viability (NCI-H1355; first compound 0.06325 µM): 0.398
relative viability (NCI-H1355; first compound 0.2 µM): 0.12
relative viability (LOU-NH91; first compound 0.002 µM): 0.935
relative viability (LOU-NH91; first compound 0.006325 µM): 0.872
relative viability (LOU-NH91; first compound 0.02 µM): 0.647
relative viability (LOU-NH91; first compound 0.06325 µM): 0.335
relative viability (LOU-NH91; first compound 0.2 µM): 0.377
relative viability (SK-LU-1; first compound 0.002 µM): 0.927
relative viability (SK-LU-1; first compound 0.006325 µM): 0.596
relative viability (SK-LU-1; first compound 0.02 µM): 0.615
relative viability (SK-LU-1; first compound 0.06325 µM): 0.262
relative viability (SK-LU-1; first compound 0.2 µM): 0.211
relative viability (HCC-78; first compound 0.002 µM): 0.381
relative viability (HCC-78; first compound 0.006325 µM): 0.426
relative viability (HCC-78; first compound 0.02 µM): 0.283
relative viability (HCC-78; first compound 0.06325 µM): 0.519
relative viability (HCC-78; first compound 0.2 µM): 0.356
relative viability (NCI-H3122; first compound 0.002 µM): 0.991
relative viability (NCI-H3122; first compound 0.006325 µM): 0.973
relative viability (NCI-H3122; first compound 0.02 µM): 0.456
relative viability (NCI-H3122; first compound 0.06325 µM): 0.787
relative viability (NCI-H3122; first compound 0.2 µM): 0.067
relative viability (NCI-H650; first compound 0.002 µM): 0.429
relative viability (NCI-H650; first compound 0.006325 µM): 0.392
relative viability (NCI-H650; first compound 0.02 µM): 0.298
relative viability (NCI-H650; first compound 0.06325 µM): 0.158
relative viability (NCI-H650; first compound 0.2 µM): 0.103
relative viability (NCI-H2126; first compound 0.002 µM): 0.743
relative viability (NCI-H2126; first compound 0.006325 µM): 0.765
relative viability (NCI-H2126; first compound 0.06325 µM): 0.468
relative viability (NCI-H2126; first compound 0.2 µM): 0.192
relative viability (NCI-H1395; first compound 0.002 µM): 0.731
relative viability (NCI-H1395; first compound 0.006325 µM): 0.751
relative viability (NCI-H1395; first compound 0.02 µM): 0.508
relative viability (NCI-H1395; first compound 0.06325 µM): 0.289
relative viability (NCI-H1395; first compound 0.2 µM): 0.289
relative viability (BEN; first compound 0.002 µM): 0.608
relative viability (BEN; first compound 0.006325 µM): 0.546
relative viability (BEN; first compound 0.02 µM): 0.358
relative viability (BEN; first compound 0.06325 µM): 0.525
relative viability (BEN; first compound 0.2 µM): 0.36
relative viability (NCI-H322M; first compound 0.002 µM): 0.83
relative viability (NCI-H322M; first compound 0.006325 µM): 0.407
relative viability (NCI-H322M; first compound 0.02 µM): 0.736
relative viability (NCI-H322M; first compound 0.06325 µM): 0.486
relative viability (NCI-H322M; first compound 0.2 µM): 0.417
relative viability (NCI-H1651; first compound 0.002 µM): 0.516
relative viability (NCI-H1651; first compound 0.006325 µM): 0.481
relative viability (NCI-H1651; first compound 0.02 µM): 0.371
relative viability (NCI-H1651; first compound 0.06325 µM): 0.542
relative viability (NCI-H1651; first compound 0.2 µM): 0.505
relative viability (NCI-H2347; first compound 0.002 µM): 0.54
relative viability (NCI-H2347; first compound 0.006325 µM): 0.413
relative viability (NCI-H2347; first compound 0.02 µM): 0.589
relative viability (NCI-H2347; first compound 0.06325 µM): 0.38
relative viability (NCI-H2347; first compound 0.2 µM): 0.263
relative viability (HOP-62; first compound 0.002 µM): 0.527
relative viability (HOP-62; first compound 0.006325 µM): 0.555
relative viability (HOP-62; first compound 0.02 µM): 0.454
relative viability (HOP-62; first compound 0.06325 µM): 0.18
relative viability (HOP-62; first compound 0.2 µM): 0.0867
relative viability (NCI-H1944; first compound 0.002 µM): 0.549
relative viability (NCI-H1944; first compound 0.006325 µM): 0.571
relative viability (NCI-H1944; first compound 0.02 µM): 0.354
relative viability (NCI-H1944; first compound 0.06325 µM): 0.404
relative viability (NCI-H1944; first compound 0.2 µM): 0.153

Source: the supplement of paper PMC10307832
